| SMILES | melting point |
| --- | --- |
| CC(Cn1cc(-c2ccccc2)c(O)n1)N(C)C.Cl.Cl (stereo not shown) | 189 °C |
| Cc1c(-c2ccccc2)c(O)nn1CCN1CCCCC1.Cl.Cl | 222 °C |
| Cl.Cl.Oc1nn(CCN2CCCCCC2)cc1-c1ccccc1 | 228 °C (dec.) |
| CN1CCCC(Cn2cc(-c3ccccc3)c(O)n2)C1 (stereo not shown) [Example 27, 1-(1-Methylpiperidin-3-ylmethyl)-4-phenyl-1H-pyrazol-3-ol] | 132 °C |

Continued, values first:

| melting point | SMILES |
| --- | --- |
| 173 °C (dec.) | Cl.Cl.Oc1nn(CCN2CC3CCC2C3)cc1-c1ccccc1 (stereo not shown) |
| 121 °C | CS(=O)(=O)Nc1nn(CCN2CCCCC2)cc1-c1ccccc1 [Example 25, N-[4-Phenyl-1-(2-piperidin-1-ylethyl)-1H-pyrazol-3-yl]-methanesulfonamide] |
| 168 °C | NC(=O)c1ccccc1-c1cnn(CCN2CCCCC2)c1 [Example 72, 2-[1-(2-Piperidin-1-ylethyl)-1H-pyrazol-4-yl]benzamide] |

Source: patent US8048893B2, “Pyrazolyl derivatives, preparation process and intermediates of this process as medicinal products and pharmaceutical compositions containing them” (Aventis Pharma SA, priority 2003, dated 2011)
